According to US12528837B2, “Aryl substituted polymyxin derivatives” (priority 2018, dated 2026):
Values after ≈ are worked out from the molar mass of the structure shown. Where two headings read alike, the source gives them in different places. Where a SMILES comes first, the peptide text is derived from it. Bridges are numbered along the chain shown (N, C = ends). [ ]: non-standard residue; d: D form. The star is where a group is joined. X3 = CC(C)c1cccc([C@@H](CN)CC(=O)*)c1; X8 = NC[C@@H](CC(=O)*)Cc1cccc(Cl)c1; X5 = NC[C@H](CC(=O)*)c1ccc(Cl)cc1; Dab = NCC[C@H](N)C(=O)O; Abu = CC[C@H](N)C(=O)O; Dap = NC[C@H](N)C(=O)O

Legend:
[1] = test system: A. baumannii NCTC 13424; assay type: cell-based
Experimental: (§1) The inoculum was prepared by making a direct suspension of isolated colonies (selected from an 18-24 hour Mueller-Hinton agar plate) adjusted to the 0.5 McFarland standard. […] The assays were performed in duplicate. […] The MIC values are quoted in μg/mL.

[2] = test system: E. coli ATCC 25922; assay type: cell-based; details: ATCC 25922
Experimental: as §1

[3] = test system: K. pneumoniae ATCC 13822; assay type: cell-based; details: ATCC 13822
Experimental: as §1

[4] = test system: A. baumannii ATCC BAA-747; assay type: cell-based
Experimental: as §1

[5] = test system: P. aeruginosa ATCC 27853; assay type: cell-based; details: ATCC 27853
Experimental: as §1

[6] = test system: HK-2 cells; test: In vitro renal cell toxicity assay (HK-2); assay type: cell-based
In short: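 HK-2 cells seeded 7,500/well, adhered overnight, then exposed to compound for 24 h at 37° C, 5% CO2, with 5% water and 0.5% DMSO. Background-subtracted, vehicle-normalised dose-response fitted with bottom fixed at zero; IC50 reported relative to PMB in the same run, median where repeated.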

[7] = test system: E. coli CA58; assay type: cell-based
In short: (§2)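 MIC (μg/mL), duplicate runs; median value where a compound was tested repeatedly. Inoculum: colonies from 18-24 h Mueller-Hinton agar, suspended directly to 0.5 McFarland.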

[8] = test system: P. aeruginosa CCUG 59347; assay type: cell-based
In short: as §2

[9] = test system: K. pneumoniae CA64; assay type: cell-based
In short: as §2

[10] = Kidney drug level after subcutaneous dose in mouse; assay type: in vivo; details: mouse, in vivo
In short: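 Mice were euthanised four hours after subcutaneous dosing. Both kidneys were trimmed, weighed, snap-frozen, then homogenised with zirconium oxide beads. After centrifugation (13,000 rpm, 6 °C, 10 min), supernatants were analysed by LC-MS-MS.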

[11] = Renal toxicity in mice, separate experiment Example 17 vs PMB; assay type: in vivo, mouse; details: sc 25 mg free base/kg, four doses at 8 hr intervals
Experimental: After the fourth dose animals were transferred into individual metabolic cages and urine collected for 24 hours for determination of urinary biomarkers. After collecting urine mice were euthanised and the kidneys harvested for histopathology.
In a separate experiment Example 17 was compared with PMB.

[12] = cation-adjusted Mueller-Hinton Broth, 18-20 h, 35° C.

Compound	MIC A. baumannii NCTC 13424 ([1]; NCTC 13424)	MIC E. coli ATCC 25922 [2]	MIC K. pneumoniae ATCC 13822 [3]	MIC A. baumannii ATCC BAA-747 ([4]; ATCC BAA-747)	MIC P. aeruginosa ATCC 27853 [5]	HK-2 rel to PMB [6]	MIC E. coli CA58 ([7]; CA58)	MIC P. aeruginosa CCUG 59347 ([8]; CCUG 59347)	MIC K. pneumoniae CA64 ([9]; CA64)	tissue level at time at 4 h ([10]; sc, 17.2 mg/kg)	also measured
CC(C)C[C@@H]1NC(=O)[C@@H](Cc2ccccc2)NC(=O)[C@H](CCN)NC(=O)[C@@H](NC(=O)[C@H](CN)NC(=O)[C@@H](NC(=O)C[C@@H](CN)c2ccc(Cl)cc2)[C@@H](C)O)CCNC(=O)[C@H]([C@@H](C)O)NC(=O)[C@H](CCN)NC(=O)[C@H](CCN)NC1=O [Example 2, (R)-4-amino-3-(4- chlorophenyl)butanoyl- Thr-Dap-Cyclo[Dab- Dab-DPhe-Leu-Dab- Dab-Thr]] (X5-T[Dap][Dab][Dab][dF]L[Dab][Dab]T; lactam 3-C)	0.25 µg/mL (≈ 0.218 µM)	0.25 µg/mL (≈ 0.218 µM)	0.25 µg/mL (≈ 0.218 µM)	0.25 µg/mL (≈ 0.218 µM)	0.25 µg/mL (≈ 0.218 µM)	7.2	8 µg/mL (≈ 6.99 µM)	0.5 µg/mL (≈ 0.437 µM)	2 µg/mL (≈ 1.75 µM)	538000 ng/g	4 hr kidney level/rel. cytotoxicity [10]: 75
CC(C)C[C@@H]1NC(=O)[C@@H](Cc2ccccc2)NC(=O)[C@H](CCN)NC(=O)[C@@H](NC(=O)[C@H](CN)NC(=O)[C@@H](NC(=O)C[C@H](CN)Cc2cccc(Cl)c2)[C@@H](C)O)CCNC(=O)[C@H]([C@@H](C)O)NC(=O)[C@H](CCN)NC(=O)[C@H](CCN)NC1=O [Example 11, (R)-4-amino-3-(3- chlorobenzyl)butanoyl- Thr-Dap-Cyclo[Dab- Dab-DPhe-Leu-Dab- Dab-Thr]. Isomer 1] (X8-T[Dap][Dab][Dab][dF]L[Dab][Dab]T; lactam 3-C)	0.25 µg/mL (≈ 0.216 µM)	0.5 µg/mL (≈ 0.431 µM)	0.5 µg/mL (≈ 0.431 µM)	0.5 µg/mL (≈ 0.431 µM)	0.25 µg/mL (≈ 0.216 µM)	5.2	4 µg/mL (≈ 3.45 µM)	0.5 µg/mL (≈ 0.431 µM)	16 µg/mL (≈ 13.8 µM)	163000 ng/g	–
CC[C@@H]1NC(=O)[C@@H](Cc2ccccc2)NC(=O)[C@H](CCN)NC(=O)[C@@H](NC(=O)[C@H](CN)NC(=O)[C@@H](NC(=O)C[C@H](CN)c2cccc(C(C)C)c2)[C@@H](C)O)CCNC(=O)[C@H]([C@@H](C)O)NC(=O)[C@H](CCN)NC(=O)[C@H](CCN)NC1=O [Example 17] (X3-T[Dap][Dab][Dab][dF][Abu][Dab][Dab]T; lactam 3-C)	–	–	–	–	–	–	–	–	–	–	MIC A. baumannii NCTC 13424 [1, 12]: 0.06 µg/mL (≈ 0.0534 µM); MIC A. baumannii ATCC BAA-747 [4, 12]: 0.06 µg/mL (≈ 0.0534 µM); HK-2 rel to PMB ([6]; IC50 relative to PMB in the same experiment, 24 h): 29.0; MIC E. coli CA58 [7, 12]: 8 µg/mL (≈ 7.12 µM); MIC P. aeruginosa CCUG 59347 [8, 12]: 0.25 µg/mL (≈ 0.222 µM); MIC K. pneumoniae CA64 [9, 12]: 16 µg/mL (≈ 14.2 µM); tissue level at time at 4 h ([10]; mice, 17.2 mg/kg free base sc, 4 h, read-out: 4 hr kidney level): 231000 ng/g; Basophilic tubules (histopathology) ([11]; animals per grade): 3 normal/2 minimal; Tubular degeneration/necrosis (histopathology) ([11]; animals per grade): All normal; Albumin, elevation compared with vehicle control ([11]; urine): 2.7×; Cystatin C, elevation compared with vehicle control ([11]; urine): 1.8×; KIM-1, elevation compared with vehicle control ([11]; urine): 4.7×
CC(C)C[C@H]1NC(=O)[C@H](CCN)NC(=O)[C@@H](NC(=O)[C@H](CN)NC(=O)[C@@H](NC(=O)C[C@H](CN)c2cccc(C(C)C)c2)[C@@H](C)O)CCNC(=O)[C@H]([C@@H](C)O)NC(=O)[C@H](CCN)NC(=O)[C@H](CCN)NC(=O)[C@H]([C@@H](C)O)NC1=O [Example 19, (S)-4-amino-3-(3- isopropylphenyl) butanoyl-Thr-Dap- Cyclo[Dab-Dab-DLeu- Thr-Dab-Dab-Thr]] (X3-T[Dap][Dab][Dab][dL]T[Dab][Dab]T; lactam 3-C)	0.25 µg/mL (≈ 0.226 µM)	0.25 µg/mL (≈ 0.226 µM)	0.25 µg/mL (≈ 0.226 µM)	0.25 µg/mL (≈ 0.226 µM)	0.25 µg/mL (≈ 0.226 µM)	101.4	32 µg/mL (≈ 28.9 µM)	1 µg/mL (≈ 0.904 µM)	64 µg/mL (≈ 57.8 µM)	386000 ng/g	–
